Results from ChEMBL document CHEMBL1201862, “PubChem BioAssay data set” (2004).
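Exposure lasted 48 hours, with cells grown in 96-well plates and compounds tested at five concentrations. Abbreviation: GI50, concentration required for 50% inhibition of growth.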 Active and inactive are the calls of the source. No stated cut-off is given here; in the data, active = GI50 up to about 1.1 µM and inactive = higher.

Legend:
Test in all cases: growth of human tumour cells (NCI), 48 h
[1] = tested on: OVCAR-3
[2] = tested on: K562
[3] = tested on: CCRF-CEM
[4] = tested on: RPMI-8226
[5] = tested on: OVCAR-4
[6] = tested on: SK-MEL-28
[7] = tested on: SF-268
[8] = tested on: HT-29
[9] = tested on: SF-539
[10] = tested on: NCI-H460
[11] = tested on: RXF 393
[12] = tested on: A549
[13] = tested on: SF-295
[14] = tested on: UACC-257
[15] = tested on: SR
[16] = tested on: SN12C
[17] = tested on: 786-0
[18] = tested on: HL-60
[19] = tested on: NCI-H522
[20] = tested on: A498

Row | SMILES | GI50 [1] | GI50 [2] | GI50 [3] | GI50 [4] | GI50 [5] | GI50 [6] | GI50 [7] | GI50 [8] | GI50 [9] | GI50 [10] | GI50 [11] | GI50 [12] | GI50 [13] | GI50 [14] | GI50 [15] | GI50 [16] | GI50 [17] | GI50 [18] | GI50 [19] | GI50 [20]
1 | COc1c(CC(C)O)c2c3c(CC(C)O)c(OC)c(=O)c4c(O)cc5c(c6c(cc(O)c(c1=O)c62)OCO5)c43 (stereo unspecified) [CERCOSPORIN] | 1.87 µM (inactive) | 2 µM (inactive) | 2.72 µM (inactive) | 2.1 µM (inactive) | 1.38 µM (inactive) | 1.86 µM (inactive) | 1.81 µM (inactive) | 0.364 µM (active) | 2.13 µM (inactive) | 0.45 µM (active) | 1.27 µM (inactive) | 1.65 µM (inactive) | 1.91 µM (inactive) | 1.34 µM (inactive) | 1.37 µM (inactive) | 1.57 µM (inactive) | 2.66 µM (inactive) | 0.968 µM (active) | 1.82 µM (inactive) | 
2 | COc1ccc(C(=O)c2c3cc(OC)c(OC)c(OC)c3cc[n+]2C)cc1 |  | 20.1 µM (inactive) | 20.9 µM (inactive) | 10.2 µM (inactive) |  | 28.5 µM (inactive) | 37.9 µM (inactive) | 30.3 µM (inactive) | > 10 µM (inactive) | 31.6 µM (inactive) | 39.6 µM (inactive) | 17.8 µM (inactive) |  |  | 14.8 µM (inactive) | 31.8 µM (inactive) | 18.6 µM (inactive) |  | 19.2 µM (inactive) | 36.7 µM (inactive)
3 | COC1OC2COC1(OC)C1OC(C)(C)OC21 (stereo unspecified) | > 100 µM (inactive) | > 100 µM (inactive) | > 100 µM (inactive) | > 100 µM (inactive) | > 100 µM (inactive) | > 100 µM (inactive) | > 100 µM (inactive) | > 100 µM (inactive) |  | > 100 µM (inactive) | > 100 µM (inactive) | > 100 µM (inactive) | > 100 µM (inactive) | > 100 µM (inactive) | > 100 µM (inactive) | > 100 µM (inactive) | > 100 µM (inactive) |  | > 100 µM (inactive) | > 100 µM (inactive)
4 | NN=C(S)Nc1cccc(Cl)c1 | 29.3 µM (inactive) | 36.6 µM (inactive) | 25.8 µM (inactive) | > 100 µM (inactive) | 39.9 µM (inactive) | > 100 µM (inactive) | > 100 µM (inactive) | 37.4 µM (inactive) | > 100 µM (inactive) | 64.1 µM (inactive) | > 100 µM (inactive) | > 100 µM (inactive) | 69.2 µM (inactive) | > 100 µM (inactive) |  | 94.4 µM (inactive) | > 100 µM (inactive) | > 100 µM (inactive) | 95.9 µM (inactive) | > 100 µM (inactive)
5 | CN(CC(=O)O)c1ncc2c(n1)-c1ccccc1OC2c1ccccc1 (stereo unspecified) | > 100 µM (inactive) | 71.8 µM (inactive) | 44.3 µM (inactive) | 38.1 µM (inactive) | > 100 µM (inactive) | > 100 µM (inactive) | > 100 µM (inactive) | > 100 µM (inactive) | > 100 µM (inactive) | 89.7 µM (inactive) | 56.1 µM (inactive) | 76.4 µM (inactive) | > 100 µM (inactive) | > 100 µM (inactive) | 37 µM (inactive) | > 100 µM (inactive) |  | 33.2 µM (inactive) | > 100 µM (inactive) | 
6 | CC1(CO)COS(=O)OC1 (stereo unspecified) | > 100 µM (inactive) |  | > 100 µM (inactive) |  | > 100 µM (inactive) | > 100 µM (inactive) | > 100 µM (inactive) | > 100 µM (inactive) |  | > 100 µM (inactive) | > 100 µM (inactive) | > 100 µM (inactive) | > 100 µM (inactive) | > 100 µM (inactive) | > 100 µM (inactive) | > 100 µM (inactive) |  |  | > 100 µM (inactive) | 1.89 µM (inactive)
7 | COc1ccc(CCc2ccc(O)c(C(=O)O)c2)cc1OC | > 100 µM (inactive) | 59.7 µM (inactive) | 50.7 µM (inactive) | > 100 µM (inactive) | > 100 µM (inactive) | > 100 µM (inactive) | > 100 µM (inactive) | > 100 µM (inactive) | 37.2 µM (inactive) | > 100 µM (inactive) | 63.5 µM (inactive) | > 100 µM (inactive) | > 100 µM (inactive) | > 100 µM (inactive) | > 100 µM (inactive) | > 100 µM (inactive) | > 100 µM (inactive) | > 100 µM (inactive) | > 100 µM (inactive) | 
8 | Cc1c2c(cc3c1[nH]c1ccccc13)C(c1ccc(Cl)cc1)=NCC2 | 0.29 µM (active) | 0.328 µM (active) | 0.433 µM (active) | 0.497 µM (active) | 0.718 µM (active) | 1.45 µM (inactive) | 0.598 µM (active) | 0.203 µM (active) | 0.667 µM (active) | 0.267 µM (active) | 0.465 µM (active) | 0.665 µM (active) | 0.255 µM (active) | 0.621 µM (active) |  | 0.244 µM (active) |  | 0.288 µM (active) | 0.288 µM (active) | 0.124 µM (active)
